Results published in patent publication US9108930B2, “N1- and N2-carbamoyl-1,2,3-triazole serine hydrolase inhibitors and methods” (The Scripps Research Institute, priority 2011, dated 2015).
Where “and” joins values, the source holds several entries; their conditions need not be identical. Identical values can stand only once.

Assays:
[1] = tested on: N-terminally modified proteins (APEH substrates) in mouse T-cells; assay: SILAC-based N-terminal labeling and enrichment in mouse T-cells
[2] = tested on: serine hydrolases (SHs) in mouse brain and heart; assay: In vivo selectivity across SHs in tissues of treated mice (gel-based ABPP, ABPP-SILAM)
Experimental: (§1) The potency and selectivity of 1,2,3-triazole ureas in vivo also was investigated. Mice were treated with the APEH inhibitor AA74-1 at various doses (0.2-1.6 mg/kg; PEG300 or 18:1:1 saline/ethanol/emulphor intraperitoneally) and sacrificed after 4 h. Brains and hearts were removed, homogenized, and analyzed by gel-based competitive ABPP. […] Finally, the possibility of extending ABPP-SILAC for the characterization of inhibitor selectivity in vivo was explored by taking advantage of recently described protocols for stable isotope labeling in mammals (SILAM). In this approach, brain tissues from vehicle- and AA74-1-treated mice were separately mixed with equivalent amounts of brain tissue from ‘heavy’ amino acid-fed mice, and the samples were then labeled with FP-biotin, enriched by avidin chromatography, analyzed by LC-MS, and SH activities quantified by measuring the ratio-of-ratios for observed peptide signals. […] The ratio-of-ratio signals for APEH indicated greater than 90% inhibition of this enzyme in AA74-1-treated animals (FIG. 5b, top), consistent with average spectral count values (14 and 1 spectral counts for APEH in vehicle-treated versus AA74-1-treated mice, respectively; FIG. 5b, bottom). […] ACHE, an enzyme that is targeted by other reported NHU inhibitors, was not inhibited by AA74-1 in either mouse brain (FIG. 5b) or transfected cell (FIG. 16) proteomes.

[3] = biological target: T1, APEH (Mus musculus, UniProt Q8R146); assay: In vivo APEH inhibition, gel-based competitive ABPP of brain and heart; settings: i.p., 4 h; doses 0.2-1.6 mg/kg
T1 sequence (Q8R146 1-732): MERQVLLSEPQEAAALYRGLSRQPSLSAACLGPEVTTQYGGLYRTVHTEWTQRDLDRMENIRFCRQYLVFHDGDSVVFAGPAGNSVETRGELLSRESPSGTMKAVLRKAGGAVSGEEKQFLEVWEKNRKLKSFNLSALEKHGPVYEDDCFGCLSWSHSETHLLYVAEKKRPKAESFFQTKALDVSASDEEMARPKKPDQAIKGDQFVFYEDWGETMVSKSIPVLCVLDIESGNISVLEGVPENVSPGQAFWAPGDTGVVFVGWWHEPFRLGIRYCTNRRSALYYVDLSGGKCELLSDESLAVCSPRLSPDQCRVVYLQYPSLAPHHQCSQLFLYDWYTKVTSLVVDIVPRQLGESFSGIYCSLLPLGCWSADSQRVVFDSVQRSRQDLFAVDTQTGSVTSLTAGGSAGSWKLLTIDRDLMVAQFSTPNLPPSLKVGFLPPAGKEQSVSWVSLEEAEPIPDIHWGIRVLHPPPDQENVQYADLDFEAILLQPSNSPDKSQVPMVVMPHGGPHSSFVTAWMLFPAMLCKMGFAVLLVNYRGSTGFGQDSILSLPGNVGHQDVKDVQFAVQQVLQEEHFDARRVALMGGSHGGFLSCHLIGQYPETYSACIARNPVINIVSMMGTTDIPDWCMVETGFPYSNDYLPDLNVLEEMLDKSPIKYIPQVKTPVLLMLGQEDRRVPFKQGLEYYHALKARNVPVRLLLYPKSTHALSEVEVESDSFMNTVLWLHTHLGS
Experimental: as §1, with “proteomes. […]” for “proteomes.”

[4] = biological target: T1, APEH; assay: ABPP-SILAC in living mouse T-cells; settings: 3 nM inhibitor, 4 h
[5] = tested on: peritoneal macrophages; assay: LPS-stimulated TNF-alpha release (ELISA), macrophages from treated C57 BL/6 mice; assay type: in vivo, mouse; settings: 5 mg/kg, 4 hours, i.p.; LPS 5 μg/mL, 90 min
Experimental: The effects of DAGLB-inhibition on the proinflammatory response in Pla2g4a^+/+ versus Pla2g4a^−/− mice also was evaluated. Thioglycolate-elicited macrophages from C57 BL/6 mice treated with KT109 or KT195 (5 mg/kg, 4 hours, i.p.) were harvested, plated, and stimulated with lipopolysaccharide (LPS).

[6] = biological target: T2, ABHD6 (Mus musculus, UniProt Q8R2Y0); assay: In situ inhibition in Neuro2A cells, competitive ABPP; assay type: cell-based; settings: 4 hours, same dose as used for DAGLB by KT109 and KT172
T2 sequence (Q8R2Y0 1-336): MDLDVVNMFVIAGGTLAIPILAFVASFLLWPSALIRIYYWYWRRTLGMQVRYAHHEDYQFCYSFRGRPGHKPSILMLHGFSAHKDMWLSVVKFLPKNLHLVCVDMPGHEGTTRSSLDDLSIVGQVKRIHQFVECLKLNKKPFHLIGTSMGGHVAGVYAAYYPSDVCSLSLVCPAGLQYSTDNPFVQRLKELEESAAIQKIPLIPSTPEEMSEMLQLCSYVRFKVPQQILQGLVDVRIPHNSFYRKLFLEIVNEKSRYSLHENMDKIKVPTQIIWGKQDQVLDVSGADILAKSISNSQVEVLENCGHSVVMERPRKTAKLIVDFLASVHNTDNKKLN
Experimental: For gel-based competitive ABPP studies, proteomes from cells treated in situ with inhibitor for 4 h at 37° C. at the indicated concentrations (n=3) were labeled with HT-01 (1 μM) for 30 min at 37° C. After quenching, SDS-PAGE, and in-gel visualization, the percentage of enzyme activity remaining was determined by measuring the integrated optical intensity of the bands using IMAGER® software. For LC-MS substrate assays, the percentage of enzyme activity remaining was determined by comparing the specific activity (amount of 2-AG formed per min per mg of proteome) of inhibitor with DMSO-treated samples. The IC50 values were determined from a dose-response curve generated using GraphPad PRISM® software.

CC(C)CC(O)(CC(C)C)c1cnn(C(=O)N2CCCC2)n1 [AA74-1]
changes in N-terminal labeling signals of five N-terminally acetylated proteins ([1]; 1 nM): 2.5 to 4.6 fold | number of proteins with consistent two-fold or greater reductions in N-terminal labeling signals ([1]; 1 nM versus DMSO): 25 proteins | SHs inhibited among 44 SHs identified in brain (ABPP-SILAM) ([2]; 0.8 mg/kg, i.p.): only APEH was inhibited | additional SH targets by gel-based ABPP ([2]; brain and heart, 0.2-1.6 mg/kg i.p., 4 h): No additional SH targets were observed | dose (as low as) giving complete inhibition of APEH in brain and heart [3]: 0.4 mg/kg | APEH activity blocked [4]: > 95% and > 97%

O=C(N1CCCCC1Cc1ccccc1)n1cc(-c2ccc(-c3ccccc3)cc2)nn1 (centres unmarked) [KT109]
secreted TNF-alpha levels [5]: modest but significant reduction in secreted TNF-alpha levels

COc1ccc(-c2ccc(-c3cn(C(=O)N4CCCCC4c4ccccc4)nn3)cc2)cc1 (centres unmarked) [KT195]
inactivation of ABHD6 in Neuro2A cells [6]: completely inactivating ABHD6
